# In patent US20260265233A1, “BENZOTHIOPHENE DERIVATIVES AS RXFP1 AGONISTS” (BRISTOL-MYERS SQUIBB COMPANY, priority 2021, published 2026):
# Biological target: T1, human RXFP1 (Homo sapiens, UniProt Q9HBX9)
# T1 construct: expressed in transfected cells
# T1 sequence (Q9HBX9 1-757): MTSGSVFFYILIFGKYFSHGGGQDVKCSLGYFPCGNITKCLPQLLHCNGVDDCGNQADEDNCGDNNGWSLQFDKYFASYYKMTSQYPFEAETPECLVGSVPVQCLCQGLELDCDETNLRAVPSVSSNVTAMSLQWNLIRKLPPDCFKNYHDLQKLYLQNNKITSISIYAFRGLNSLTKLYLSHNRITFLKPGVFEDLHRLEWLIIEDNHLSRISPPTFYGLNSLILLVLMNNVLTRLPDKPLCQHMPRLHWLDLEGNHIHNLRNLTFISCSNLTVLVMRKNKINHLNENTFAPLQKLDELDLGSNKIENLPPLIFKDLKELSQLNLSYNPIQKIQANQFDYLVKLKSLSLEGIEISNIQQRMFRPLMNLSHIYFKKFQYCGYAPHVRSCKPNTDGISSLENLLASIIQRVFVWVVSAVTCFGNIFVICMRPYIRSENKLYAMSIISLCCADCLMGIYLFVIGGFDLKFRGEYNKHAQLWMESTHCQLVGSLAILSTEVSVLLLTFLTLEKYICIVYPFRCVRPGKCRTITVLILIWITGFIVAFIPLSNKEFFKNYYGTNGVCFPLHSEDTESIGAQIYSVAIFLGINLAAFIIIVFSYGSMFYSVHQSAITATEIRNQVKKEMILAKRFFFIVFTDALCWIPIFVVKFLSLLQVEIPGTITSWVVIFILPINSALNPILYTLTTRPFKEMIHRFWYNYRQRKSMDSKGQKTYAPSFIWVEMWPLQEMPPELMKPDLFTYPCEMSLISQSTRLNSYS
# Test: hRXFP1 HEK293 cAMP assay (HTRF)
# Format: cell-based
# Settings: HEK293 cells stably expressing human RXFP1; 30 min at rt; intracellular cAMP by HTRF
# Description: RXFP1 Cyclic Adenosine Monophosphate (cAMP) Assays. Human embryonic kidney cells 293 (HEK293) cells and HEK293 cells stably expressing human RXFP1, were cultured in MEM medium supplemented with 10% qualified FBS, and 300 μg/ml hygromycin (Life Technologies). Cells were dissociated and suspended in assay buffer. The assay buffer was HBSS buffer (with calcium and magnesium) containing 20 mM HEPES, 0.05% BSA, and 0.5 mM IBMX. Cells (3000 cells per well, except 1500 cell per well for HEK293 cells stably expressing human RXFP1) were added to 384-well Proxiplates (Perkin-Elmer). Cells were immediately treated with test compounds in DMSO (2% final) at final concentrations in the range of 0.010 nM to 50 μM. Cells were incubated for 30 min at rt. The level of intracellular cAMP was determined using the HTRF HiRange cAMP assay reagent kit (Cisbio) according to manufacturer's instructions. Solutions of cryptate conjugated anti-cAMP and d2 fluorophore-labelled cAMP were made in a supplied lysis buffer separately. Upon completion of the reaction, the cells were lysed with equal volume of the d2-cAMP solution and anti-cAMP solution. After a 1 h rt incubation, time-resolved fluorescence intensity was measured using the Envision (Perkin-Elmer) at 400 nm excitation and dual emission at 590 nm and 665 nm. A calibration curve was constructed with an external cAMP standard at concentrations ranging from 2.7 μM to 0.1 pM by plotting the fluorescent intensity ratio from 665 nm emission to the intensity from the 590 nm emission against cAMP concentrations. The potency and activity of a compound to […] cAMP production was then determined by fitting to a 4-parametric logistic equation from a plot of cAMP level versus compound concentrations.
# The examples disclosed below were tested in the human RXFP1 (hRXFP1) HEK293 cAMP assay described above and found to have agonist activity.
row,Structure (SMILES),EC50 [nM]
1,"COc1ccc(-c2cc(C(NC(=O)C3CCOCC3)C(F)(F)F)ccc2F)cc1C(=O)Nc1c(C(=O)Nc2ccc(F)c(C(F)(F)F)c2)sc2cc(C(F)(F)F)ccc12 (single isomer, unassigned) [Example 21, N-(2,2,2-trifluoro-1-(6-fluoro-3′-((2-((4-fluoro-3-(trifluoromethyl)phenyl)carbamoyl)-6-(trifluoromethyl)benzo[b]thiophen-3-yl)carbamoyl)-4′-methoxy-[1,1′-biphenyl]-3-yl)ethyl)tetrahydro-2H-pyran-4-carboxamide]",363
2,"COc1ccc(C2=NOC(C(C)(C)O)C2)cc1C(=O)Nc1c(C(=O)Nc2ccc(F)c(C(F)(F)F)c2)sc2cc(C(F)(F)F)ccc12 (single isomer, unassigned) [Example 257, N-[4-fluoro-3-(trifluoromethyl)phenyl]-3-{5-[5-(2-hydroxypropan-2-yl)-4,5-dihydro-1,2-oxazol-3-yl]-2-methoxy-benzamido}-6-(trifluoromethyl)-1-benzothiophene-2-carboxamide]",166
3,"COc1ccc(C2CC2C(=O)NCC(C)(C)O)cc1C(=O)Nc1c(C(=O)Nc2ccc(F)c(C(F)(F)F)c2)sc2cc(C(F)(F)F)ccc12 (stereo not drawn) [Example 166, N-[4-fluoro-3-(trifluoromethyl)phenyl]-3-(5-{2-[(2-hydroxy-2-methylpropyl)carbamoyl]cyclopropyl}-2-methoxy-benzamido)-6-(trifluoromethyl)-1-benzothiophene-2-carboxamide]",1630
4,"COc1cc(F)c(C#CCO)cc1C(=O)Nc1c(C(=O)Nc2ccc(F)c(C(F)(F)F)c2)sc2cc(C(F)(F)F)ccc12 [Example 110, N-(4-fluoro-3-(trifluoromethyl)phenyl)-3-(4-fluoro-5-(3-hydroxyprop-1-yn-1-yl)-2-methoxy-benzamido)-6-(trifluoromethyl) benzo[b] thiophene-2-carboxamide]",144
5,"COc1ccc(C(=O)N2CC(O)C2)cc1C(=O)Nc1c(C(=O)Nc2ccc(F)c(C(F)(F)F)c2)sc2cc(C(F)(F)F)ccc12 [Example 191, N-(4-fluoro-3-(trifluoromethyl)phenyl)-3-(5-(3-hydroxyazetidine-1-carbonyl)-2-methoxy-benzamido)-6-(trifluoromethyl) benzo[b] thiophene-2-carboxamide]",346

# The remaining lines, values ahead:
row,EC50 [nM],Structure (SMILES)
1,2800,"COc1ccc(C2CCCNCC2)cc1C(=O)Nc1c(C(=O)Nc2ccc(F)c(C(F)(F)F)c2)sc2cc(C(F)(F)F)ccc12 (stereo not drawn) [Example 39, 3-(5-(azepan-4-yl)-2-methoxybenzamido)-N-(4-fluoro-3-(trifluoromethyl)phenyl)-6-(trifluoromethyl)benzo[b]thiophene-2-carboxamide]"
2,199,"COc1ccc(C2CC2C(C)(C)O)cc1C(=O)Nc1c(C(=O)Nc2ccc(F)c(C(F)(F)F)c2)sc2cc(C(F)(F)F)ccc12 (stereo not drawn) [Example 159, N-(4-fluoro-3-(trifluoromethyl)phenyl)-3-(5-(2-(2-hydroxypropan-2-yl)cyclopropyl)-2-methoxy-benzamido)-6-(trifluoromethyl) benzo[b] thiophene-2-carboxamide]"
3,3360,"COc1ccc(C2CCCN(C(C)C)CC2)cc1C(=O)Nc1c(C(=O)Nc2ccc(F)c(C(F)(F)F)c2)sc2cc(C(F)(F)F)ccc12 (stereo not drawn) [Example 213, N-(4-fluoro-3-(trifluoromethyl)phenyl)-3-(5-(1-isopropylazepan-4-yl)-2-methoxy-benzamido)-6-(trifluoromethyl) benzo[b] thiophene-2-carboxamide]"
4,277,"COc1ccc(C2CCCN(C(=O)C(C)(C)O)C2)cc1C(=O)Nc1c(C(=O)Nc2ccc(F)c(C(F)(F)F)c2)sc2cc(C(F)(F)F)ccc12 (stereo not drawn) [Example 104, N-[4-fluoro-3-(trifluoromethyl)phenyl]-3-{5-[1-(2-hydroxy-2-methylpropanoyl)piperidin-3-yl]-2-methoxy-benzamido}-6-(trifluoromethyl)-1-benzothiophene-2-carboxamide]"
